# Test results published in ChEMBL document CHEMBL5335777 (Eur J Med Chem, 2023).
# pIC50: −log10 of the molar value. The source made the active and inactive calls. No cut-off for these calls is given here.
# Legend:
# [1] = Cytotoxicity against human MRC5 cells assessed as inhibition of cell growth incubated for 72 hrs by MTT assay; format: toxicity, cell-based
# Homo sapiens [2] = species: Homo sapiens; experiment: Selectivity ratio of IC50 for human MRC5 cells to IC50 for human NCI-H1792 cells harboring homozygous KRAS G12C mutant
# [3] = Selectivity ratio of IC50 for human LCLC-103H cells harboring wild type KRAS to IC50 for human SW1573 cells harboring homozygous KRAS G12C mutant; format: functional
# Homo sapiens [4] = species: Homo sapiens; experiment: Inhibition of GDP-bound human KRAS 149stop G12C mutant expressed in Escherichia coli BL21 Rosetta cells assessed as inhibition of SOS1 mediated nucleotide exchange at 250 uM measured after 24 hrs by fluorescence based analysis
# BXPC-3 = experiment: Antiproliferative activity against human BXPC-3 cells harboring wild type KRAS assessed as inhibition of cell growth incubated for 72 hrs by MTT assay; format: functional, cell-based; settings: BXPC-3, 72 h
# NCI-H1792 [5] = experiment: Antiproliferative activity against human NCI-H1792 cells harboring KRAS G12C mutant assessed as cell viability at 25 uM incubated for 72 hrs by MTT assay relative to control; format: functional; settings: read-out: Activity
# [6] = Selectivity ratio of IC50 for human MRC5 cells to IC50 for human SW1573 cells harboring homozygous KRAS G12C mutant; format: toxicity; settings: MRC5 cells versus SW1573 cells (homozygous KRAS G12C mutant), read-out: Ratio IC50
# LCLC-103H cell line = experiment: Antiproliferative activity against human LCLC-103H cells harboring wild type KRAS assessed as inhibition of cell growth incubated for 72 hrs by MTT assay; format: functional, cell-based
# PANC-1 = experiment: Antiproliferative activity against human PANC-1 cells harboring heterozygous KRAS G12D mutant assessed as inhibition of cell growth incubated for 72 hrs by MTT assay; format: functional, cell-based; settings: PANC-1, 72 h
# [7] = Selectivity ratio of IC50 for human LCLC-103H cells harboring wild type KRAS to IC50 for human NCI-H358 cells harboring heterozygous KRAS G12C mutant; format: functional
# Homo sapiens [8] = species: Homo sapiens; experiment: Inhibition of GDP-bound human KRAS 149stop G12C mutant expressed in Escherichia coli BL21 Rosetta cells assessed as inhibition of EDTA mediated nucleotide exchange at 250 uM measured after 24 hrs by fluorescence based analysis
# [9] = Selectivity ratio of IC50 for human LCLC-103H cells harboring wild type KRAS to IC50 for human NCI-H1792 cells harboring […] KRAS G12C mutant; format: functional
# [10] = Selectivity ratio of IC50 for human LCLC-103H cells harboring wild type KRAS to IC50 for human A549 cells harboring homozygous KRAS G12S mutant; format: functional
# NCI-H358 = experiment: Antiproliferative activity against human NCI-H358 cells harboring heterozygous KRAS G12C mutant assessed as inhibition of cell growth incubated for 72 hrs by MTT assay; format: functional, cell-based; settings: NCI-H358, 72 h
# A549 = experiment: Antiproliferative activity against human A549 cells harboring homozygous KRAS G12S mutant assessed as inhibition of cell growth incubated for 72 hrs by MTT assay; format: functional, cell-based; settings: A549, 72 h
# MIA PaCa-2 = experiment: Antiproliferative activity against human MIA PaCa-2 cells harboring homozygous KRAS G12C mutant assessed as inhibition of cell growth incubated for 72 hrs by MTT assay; format: functional, cell-based; settings: MIA PaCa-2, 72 h
# Homo sapiens [11] = species: Homo sapiens; experiment: Selectivity ratio of IC50 for human MRC5 cells to IC50 for human MIA PaCa-2 cells harboring homozygous KRAS G12C mutant
# Homo sapiens [12] = species: Homo sapiens; experiment: Selectivity ratio of IC50 for human MRC5 cells to IC50 for human NCI-H358 cells harboring heterozygous KRAS G12C mutant
# NCI-H1792 [13] = experiment: Antiproliferative activity against human NCI-H1792 cells harboring KRAS G12C mutant assessed as reduction in cell viability at 2.5 uM incubated for 72 hrs by MTT assay; format: functional, cell-based
# SW480 = experiment: Antiproliferative activity against human SW480 cells harboring homozygous KRAS G12V mutant assessed as inhibition of cell growth incubated for 72 hrs by MTT assay; format: functional, cell-based; settings: SW480, 72 h
# NCI-H1792 [14] = experiment: Antiproliferative activity against human NCI-H1792 cells harboring heterozygous KRAS G12C mutant assessed as inhibition of cell growth incubated for 72 hrs by MTT assay; format: functional, cell-based; settings: NCI-H1792, 72 h
# [15] = Selectivity ratio of IC50 for human BXPC-3 cells harboring wild type KRAS to IC50 for human PANC-1 cells harboring heterozygous KRAS G12D mutant; format: functional
# SW1573 = experiment: Antiproliferative activity against human SW1573 cells harboring homozygous KRAS G12C mutant assessed as inhibition of cell growth incubated for 72 hrs by MTT assay; format: functional, cell-based; settings: SW1573, 72 h
# [16] = Selectivity ratio of IC50 for human BXPC-3 cells harboring wild type KRAS to IC50 for human MIA PaCa-2 cells harboring homozygous KRAS G12C mutant; format: functional
compound,measurement,setting,value
C=CC(=O)N1CC(N2CCN(C(=O)CNc3cc(C4(C)CC4)c(Cl)cc3O)CC2)C1,IC50 at 72 h,[1],75.3 µM
same,Ratio IC50,Homo sapiens [2],2.7
same,Ratio IC50,[3],1.6
same,inhibition,Homo sapiens [4],Active
same,pIC50,BXPC-3,4.43
same,viability at 25 µM,NCI-H1792 [5],< 50%
same,selectivity ratio,[6],2.9
same,pIC50,LCLC-103H cell line,4.38
same,pIC50,PANC-1,4.24
same,Ratio IC50,[7],6
same,inhibition,Homo sapiens [8],Active
same,Ratio IC50,[9],1.5
same,Ratio IC50,[10],1.2
same,pIC50,NCI-H358,5.16
same,pIC50,A549,4.45
same,pIC50,MIA PaCa-2,5.24
same,Ratio IC50,Homo sapiens [11],13
same,Ratio IC50,Homo sapiens [12],11
same,Activity,NCI-H1792 [13],Active
same,pIC50,SW480,4.56
same,pIC50,NCI-H1792 [14],4.55
same,Ratio IC50,[15],0.6
same,pIC50,SW1573,4.59
same,Ratio IC50,[16],6.4
